Assay results: article PMC11671014 (PLOS Pathogens, 2024)

How the values were obtained:
[1] = test system: Cam3.II^rev parasite cultures, trophozoite (25–30 h.p.i.) stage; experiment: 6-h pulse exposure of synchronized trophozoites, SYBR Green I growth inhibition in next cycle; assay type: cell-based; details: Plasmodium falciparum, read-out: P. falciparum 6-h Trophozoite Stage IC50 (Cam3.II)
Protocol: Assessment of the killing activity of ML901 in pulsed exposure assays was performed using a modification of a previously described procedure. Briefly, cultures of Cam3.II^rev trophozoites (1.5% final hematocrit; 1.4% final parasitemia) were pre-synchronized to a 5-h window at trophozoite or schizont stage. Compounds were serially diluted in complete medium in v-bottomed microplates. Parasites were exposed to ML901 for 3 h, 6 h, 9 h or 24 h before washing 5 times with 200 μl of complete medium, then returned to culture conditions. For the no wash samples, ML901 was left in the culture until the assay point. Growth inhibition was assessed in the second cycle by labelling with the DNA-binding dye, SYBR Green I. Quantification of total DNA level reflects cytostatic effects as well as cytocidal effects. Old media (140 μl) was firstly replaced with fresh media, followed by the addition of lysis buffer (20 mM Tris, pH 7.5, 5 mM EDTA, 0.008% w/v saponin, 0.08% v/v Triton X-100) containing SYBR Green I. Plates were incubated at room temperature for 2 h and fluorescence readings were taken using a microplate reader (BMG LABTECH).

HsTyrRS = target: T1, HsTyrRS (Homo sapiens, UniProt P54577); experiment: Differential scanning fluorimetry (DSF) of HsTyrRS; assay type: binding; details: for thermal stabilisation of recombinant HsTyrRS (in words): with all substrates; for HsTyrRS Tm: with sulfamate, tyrosine and tRNA, apo 49.0 ± 0.2
T1 sequence (P54577 1-528): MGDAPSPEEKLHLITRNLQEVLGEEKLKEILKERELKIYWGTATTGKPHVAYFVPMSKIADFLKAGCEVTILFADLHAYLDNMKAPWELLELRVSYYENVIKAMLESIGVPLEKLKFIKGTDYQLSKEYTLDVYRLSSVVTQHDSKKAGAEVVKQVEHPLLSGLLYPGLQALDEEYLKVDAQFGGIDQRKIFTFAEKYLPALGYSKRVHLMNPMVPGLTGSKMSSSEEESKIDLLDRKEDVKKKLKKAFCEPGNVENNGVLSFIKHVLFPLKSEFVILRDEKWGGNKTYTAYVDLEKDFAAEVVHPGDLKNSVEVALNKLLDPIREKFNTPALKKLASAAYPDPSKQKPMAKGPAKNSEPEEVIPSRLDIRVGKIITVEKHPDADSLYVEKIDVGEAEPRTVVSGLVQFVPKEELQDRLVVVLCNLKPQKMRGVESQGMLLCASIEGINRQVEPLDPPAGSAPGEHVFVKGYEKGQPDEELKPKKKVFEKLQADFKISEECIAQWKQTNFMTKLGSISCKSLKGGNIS
Protocol: The effect on ML471 and analogues on the thermal stability of TyrRS enzymes was assayed as previously described. […] SYPRO Orange (Sigma-Aldrich; 5,000X concentrate in DMSO) was added to the reaction mixture at a final concentration of 5X. 25 μL of the sample was added into each well of a 96-well qPCR plate (Applied Biosystems). The plate was sealed and analysed using StepOnePlus Real-Time PCR system (Applied Biosystems). The samples were heated from 20°C to 90°C with a 1% continuous gradient. The thermal unfolding curve was plotted as the first derivative curve of the raw fluorescence values. The melting temperature (Tm), defined as the peak of the first derivative curve, was used to assess the thermal stability of protein-ligand complexes.

Primary hepatocytes = experiment: Toxicity to primary hepatocyte host cells in the liver stage assay; assay type: cell-based, human; details: for IC50: Homo sapiens, Hepatocyte
Protocol: Activity against liver stage parasites was performed using a modification of published procedures. Briefly, cryopreserved human primary hepatocytes (NF175: H1500.H15B+ Lot No. HC0-6, TebuBio or NF135: F00995-P Lot No. IRZ, BioIVT) were thawed and seeded at 18,000 cells per well in collagen-coated 384-well microtiter plates in medium containing 10% heat inactivated fetal bovine serum (hiFBS). Cells were cultured at 37°C in 5% CO2. For NF175, medium was replaced by fresh medium containing 10% hiFBS, 5 h post plating. For NF135, medium was replaced by medium containing 0.2% BSA, 24 h post plating. 48 h post plating, salivary glands from Plasmodium-NF175 or NF135-infected Anopheles stephensi mosquitoes were dissected, added to the hepatocytes (10,000 per well/ NF175; or 12,500 per well/ NF135) and allowed to infect for 3 hours. Sporozoites were then aspirated, and compounds diluted in medium containing 10% hiFBS or 0.2% BSA, were added to the hepatocytes. Medium containing 10% hiFBS or 0.2% BSA and compounds was refreshed daily for four days. Hepatocytes were fixed with ice-cold methanol and samples were blocked with 10% hiFBS in PBS. Schizonts were stained with rabbit anti-HSP70 in 10% hiFBS for 1–2 h followed by incubation with a mixture of secondary goat anti-rabbit AlexaFluor 594 antibody and 4′,6-diamidine-2′-phenylindole dihydrochloride (DAPI) in 10% hiFBS for 30 min. Samples were washed with PBS containing 0.05% Tween 20 between different steps. Cells were imaged on a PicoExpress high content imager, and images were analysed automatically using CellReporterXpress software. Data were analysed by logistic regression using a four-parameter (Hill equation) model and a least-squares method to find the best fit.

Dd2-B2 parasites = experiment: Minimum inoculum of resistance (MIR) selection; assay type: cell-based, Plasmodium falciparum; details: for IC50: DD2, read-out: in-house mean IC50; for IC50 fold shift (clones): 3 x IC50
Protocol: MIR studies were conducted for ML901 and ML471 using a modified “Gate keeper assay” [34]. […] For ML901, the parasites (starting parasite inoculums of 1x10^7 or 1x10^8 in triplicate) were subjected to pressure at 3 x IC50, with recrudescence on days 12–14. […] The different pressure regimens reflect the standard protocols in the Fidock lab used at the times of analysis. Wells were monitored daily by smear during the first seven days to ensure parasite clearance, during which media was changed daily. Thereafter, cultures were screened three times weekly by flow cytometry and smearing, and the selection maintained a consistent drug pressure over 60 days. […] Whole-genome sequencing analysis identified CNVs in chromosome 8 segments, always containing the PfTyrRS locus, consistent with our earlier evidence of this as the target of ML901 [16]. Single nucleotide polymorphism (SNP) filtering was lowered to 0.5 allelic balance (AB) but yielded no point mutations in the core genome.

[2] = host cells of the NF135 experiment
[3] = host cells of the NF175 experiment

Structure (SMILES)	IC50 [1]	ΔTm at 200 µM (HsTyrRS; 200 μM sulfamate, ATP, tyrosine, yeast tRNA, 37°C 4 h, read-out: HsTyrRS binding (DSF) Delta Tm)	thermal stabilisation of recombinant HsTyrRS (in words) (HsTyrRS)	HsTyrRS Tm (HsTyrRS; ATP)	toxicity against the primary hepatocyte host cells (in words) (Primary hepatocytes)	IC50 (Primary hepatocytes; [2])	IC50 (Primary hepatocytes; [3])	IC50 (Dd2-B2 parasites; Plasmodium falciparum)	IC90 (Dd2-B2 parasites; Plasmodium falciparum, DD2, read-out: mean IC90)	IC50 shift (Dd2-B2 parasites; selection with 2x10^5 parasites, 10 x IC50)	HsTyrRS binding (DSF) Delta Tm (HsTyrRS; 200 μM sulfamate, ATP, tyrosine, yeast tRNA, 37°C 4 h)	IC50 fold shift (clones) (Dd2-B2 parasites; selection with 10^7 parasites)	IC50 fold shift (clones) (Dd2-B2 parasites; selection with 10^8 parasites)
Nc1ncnc2c1c(C(F)(F)F)nn2[C@@H]1O[C@H](COS(N)(=O)=O)[C@@H](O)[C@H]1O [ML107]	150 ± 33 nM	–	–	–	–	–	–	–	–	–	–	–	–
CC(C)c1nn([C@@H]2O[C@H](COS(N)(=O)=O)[C@@H](O)[C@H]2O)c2ncnc(N)c12 [ML471, ((2R,3S,4R,5R)-5-(4-amino-3-isopropyl-1H-pyrazolo[3,4-d]pyrimidin-1-yl)-3,4-dihydroxytetrahydrofuran-2-yl)methyl sulfamate]	29.1 ± 3 nM	0.06 ± 0.04 °C	not stabilised	49.0 ± 0.2 °C	no toxicity	> 100 nM	> 10000 nM	1.45 nM	1.99 nM	9-16 xIC50	–	–	–
CC(C)Oc1nn([C@@H]2O[C@H](COS(N)(=O)=O)[C@@H](O)[C@H]2O)c2ncnc(N)c12 [ML723]	220 ± 31 nM	–	–	–	–	–	–	–	–	–	–	–	–
Nc1ncnc2c1c(OC(F)F)nn2[C@@H]1O[C@H](COS(N)(=O)=O)[C@@H](O)[C@H]1O [ML901]	135 ± 14 nM	–	not stabilised	49.4 ± 0.1 °C	–	> 100 nM	> 10000 nM	2.6 ± 0.05 nM	–	–	0.4 ± 0.1 °C	2-3 x IC50	3-6 x IC50
